We go through eleven molecules from patent US12624067B2, “Cyclic peptide, cell scaffold material, cell separating material, and medium” (FUJIFILM Corporation, priority 2019, dated 2026).

One data set has as its target human integrin αvβ5 (Homo sapiens, UniProt P06756+P18084). In words: Evaluation of integrin binding property (surface plasmon resonance, Biacore 3000, immobilized cyclic peptide). The following applies: peptide immobilized on CM5 sensor chip; human integrin αvβ5 30-1,000 nM, 25° C., HEPES buffer with 5 mM magnesium chloride; read-out: Integrin binding property (dissociation constant). On the procedure: A commercially available CM5 sensor chip (a carboxymethyl dextran introduction type, manufactured by GE Healthcare) was set in a surface plasmon resonance apparatus (product name: Biacore 3000, manufactured by GE Healthcare), the sensor was stabilized at a flow rate of 10 μL/min of a 4-(2-hydroxyethyl)-1-piperazineethanesulfonic acid (HEPES) buffer solution (20 mM HEPES-HCl, 150 mM NaCl, pH 7.4) for surface plasmon resonance (SPR), and 70 μL of a mixed aqueous solution of 0.2 M 1-(3-dimethylaminopropyl)-3-ethylcarbodiimide (EDC) and 0.04 M N-hydroxysuccinimide (NHS) was added thereto. Then, 300 μL of the sample solution of each of the above cyclic peptides diluted to 0.2 g/L with the HEPES buffer solution was supplied to the sensor chip, blocking treatment was subsequently carried out with an ethanolamine solution, and washing was carried out with a sodium hydroxide aqueous solution, whereby immobilization was carried out. However, only for the cyclic peptide 22, in which the number of lysine residues having an amino group as the immobilizing functional group was 1, the sample solution to be supplied to the sensor chip was set to 5,000 μL instead of 300 μL. Similarly; 70 μL of the mixed aqueous solution of 0.2 M EDC and 0.04 M NHS was added to another flow channel of the same sensor chip without immobilizing the sample, and then blocking treatment and washing treatment were carried out. Hereinafter, the obtained immobilization-treated sensor chip is referred to as an “immobilization-treated sensor chip A”.
After adding human integrin αvβ5 for 10 minutes at 25° C., which was diluted to 30 nM using a HEPES buffer solution to which magnesium chloride was added to 5 mM, in each flow channel of the immobilization-treated sensor chip A prepared in (1) above, the same HEPES buffer solution (containing 5 mM magnesium chloride) was allowed to flow as a running buffer for 30 minutes, and measurement was carried out with Biacore 3000.
Then, a regeneration treatment of removing human integrin αvβ5 was carried out by allowing a 0.5 M EDTA aqueous solution to flow through each flow channel for 10 minutes. Further, the above-described measurement process consisting of adding integrin for 10 minutes, allowing a running buffer to flow for 30 minutes, carrying out measurement with Biacore 3000, and carrying out regeneration treatment with 0.5 M EDTA aqueous solution was carried out in the same manner for 100 nM human integrin αvβ5, 300 nM human integrin αvβ5, and 1,000 nM human integrin αvβ5. Dissociation constant between the cyclic peptide and human integrin αvβ5 was calculated from the difference between the value measured by Biacore 3000 in the flow channel immobilized with the cyclic peptide and the value measured by Biacore 3000 in the flow channel unimmobilized with the cyclic peptide, in a case where each concentration of human integrin αvβ5 was allowed to flow; and the integrin binding property was evaluated according to the following evaluation standards. It is preferable that the evaluation result satisfies the evaluation standard A, B, or C.
Background: SPR reads the build-up and loss of mass on a sensor chip optically.

Data set [1] can be described thus: Evaluation of molecule stability (alkali treatment, LC/MS residual rate). The class given is physicochemical. The conditions noted are these: 500 μM peptide plus equivalent of 1 M sodium hydroxide, 15° C., 20 minutes, LC/MS peak area. As to the method:
The molecule stability of the cyclic peptide was evaluated by analyzing the alkali-treated cyclic peptide aqueous solution by liquid chromatography mass spectroscopy (LC/MS).
The alkali treatment was carried out by the following method. A 500 μM cyclic peptide aqueous solution was prepared, an equivalent of 1 M sodium hydroxide aqueous solution was added to this aqueous solution, and the resultant mixture was incubated at 15° C. for 20 minutes to obtain an alkali-treated cyclic peptide aqueous solution. The cyclic peptide residual rate was calculated by setting the total area of all peaks of the cyclic peptide before alkali treatment in LC/MS to 100% and determining the proportion of the total area of all peaks in LC/MS of the alkali-treated cyclic peptide aqueous solution, and the molecule stability was evaluated according to the following evaluation standards. It is preferable that the evaluation result satisfies the evaluation standard A, B, or C.
The conditions of the LC/MS used for the evaluation of molecule stability were set as follows. • LC apparatus: Prominence series (pump, column oven, autosampler, detector) (manufactured by Shimadzu Corporation) • MS detector: LC/MS2010EV (manufactured by Shimadzu Corporation) • Column: Cadenza CD-C18, inner diameter 2.0 mm×length 250 mm, particle size: 3 μm (manufactured by Imtakt Corporation) • Eluent A: a solution (pH 3) containing 10 mM ammonium formate as a solute, where the solvent is 100% water. • Eluent B: a solution (pH 3) containing 10 mM ammonium formate as a solute, where the solvent is acetonitrile/water=90/10. • Flow rate: 0.2 mL/min • Injection volume: 4 μL • Gradient: 0% to 30%: Eluent B (0 to 30 minutes), 100%: Eluent B (30 to 40 minutes), 0%: Eluent B (40 to 60 minutes)(B indicates the eluent B) • Column temperature: 45° C. • Ionization method: electrospray ionization (ESI) positive, ESI negative

pKd: −log10 of the molar value. Numbered stars: 1 amine (or outer) side, 2 acyl side, 3 side chain; on linkers, the order of the positions; unused ones are H or OH. Bridge positions count the residues as written; N and C are the ends. Square brackets hold non-standard residues; d marks the D form. Peptide text beside a SMILES is read from it. hCys = N[C@@H](CCS)C(=O)O; Orn = NCCC[C@H](N)C(=O)O; Dab = NCC[C@H](N)C(=O)O; Dap = NC[C@H](N)C(=O)O; X1 = O=C(C[*:1])[*:2]; X2 = O=C(C[*:2])[*:1]

human integrin αvβ5, sequence (P06756 31-889 limits assumed): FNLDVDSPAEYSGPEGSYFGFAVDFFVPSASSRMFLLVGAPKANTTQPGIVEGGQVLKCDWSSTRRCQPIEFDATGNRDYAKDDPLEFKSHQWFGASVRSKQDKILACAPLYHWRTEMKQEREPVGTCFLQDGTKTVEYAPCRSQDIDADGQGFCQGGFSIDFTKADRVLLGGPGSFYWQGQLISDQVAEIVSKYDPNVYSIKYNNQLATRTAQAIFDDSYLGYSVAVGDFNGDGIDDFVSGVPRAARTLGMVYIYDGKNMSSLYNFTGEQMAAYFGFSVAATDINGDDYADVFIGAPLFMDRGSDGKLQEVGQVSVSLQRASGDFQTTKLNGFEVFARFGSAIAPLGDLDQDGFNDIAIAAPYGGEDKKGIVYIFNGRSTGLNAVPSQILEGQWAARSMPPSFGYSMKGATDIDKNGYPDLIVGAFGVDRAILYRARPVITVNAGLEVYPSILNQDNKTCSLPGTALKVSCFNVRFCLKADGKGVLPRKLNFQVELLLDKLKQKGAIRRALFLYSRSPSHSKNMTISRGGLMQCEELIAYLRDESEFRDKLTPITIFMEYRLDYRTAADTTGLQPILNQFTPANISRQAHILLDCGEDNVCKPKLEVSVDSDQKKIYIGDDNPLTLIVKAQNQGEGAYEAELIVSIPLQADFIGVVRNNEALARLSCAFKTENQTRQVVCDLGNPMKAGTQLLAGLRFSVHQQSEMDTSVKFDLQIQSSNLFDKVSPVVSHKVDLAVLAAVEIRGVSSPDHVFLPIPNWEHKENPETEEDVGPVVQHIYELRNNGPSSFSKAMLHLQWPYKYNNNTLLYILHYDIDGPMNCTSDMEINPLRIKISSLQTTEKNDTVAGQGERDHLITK
human integrin αvβ5, sequence (P06756 891-1048 partner limits assumed): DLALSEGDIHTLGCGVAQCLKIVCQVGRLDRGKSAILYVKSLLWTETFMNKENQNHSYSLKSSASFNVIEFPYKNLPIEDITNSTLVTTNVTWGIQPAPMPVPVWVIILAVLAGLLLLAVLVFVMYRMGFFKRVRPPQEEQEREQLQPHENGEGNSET
human integrin αvβ5, sequence (P18084 24-799): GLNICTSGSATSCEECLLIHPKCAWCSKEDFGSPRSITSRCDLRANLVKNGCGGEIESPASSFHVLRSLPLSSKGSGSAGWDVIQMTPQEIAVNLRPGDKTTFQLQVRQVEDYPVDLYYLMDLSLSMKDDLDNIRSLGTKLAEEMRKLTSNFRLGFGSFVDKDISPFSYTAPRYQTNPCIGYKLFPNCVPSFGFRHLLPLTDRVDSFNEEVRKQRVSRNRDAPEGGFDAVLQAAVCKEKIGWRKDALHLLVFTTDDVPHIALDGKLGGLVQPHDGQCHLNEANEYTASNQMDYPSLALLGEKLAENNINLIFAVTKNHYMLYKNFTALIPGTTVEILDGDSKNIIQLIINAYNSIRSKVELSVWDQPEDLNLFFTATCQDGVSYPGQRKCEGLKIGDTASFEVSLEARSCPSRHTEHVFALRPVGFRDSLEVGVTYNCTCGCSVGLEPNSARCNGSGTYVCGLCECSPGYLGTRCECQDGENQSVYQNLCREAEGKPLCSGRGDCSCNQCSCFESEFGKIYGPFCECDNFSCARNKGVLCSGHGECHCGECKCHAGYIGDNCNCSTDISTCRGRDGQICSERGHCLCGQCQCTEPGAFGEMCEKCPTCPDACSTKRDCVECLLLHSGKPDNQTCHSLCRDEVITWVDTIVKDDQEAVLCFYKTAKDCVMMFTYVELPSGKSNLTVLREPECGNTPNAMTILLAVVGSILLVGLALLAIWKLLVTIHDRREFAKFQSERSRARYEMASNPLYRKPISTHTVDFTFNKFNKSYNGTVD

As for `CC[C@H](C)[C@@H]1NC(=O)CSCC[C@@H](C(=O)N[C@@H](CCCCN)C(=O)N[C@@H](CCCCN)C(=O)N[C@@H](CCCCN)C(=O)O)NC(=O)[C@H](Cc2ccccc2)NC(=O)[C@@H]2CNC(=O)CSCC[C@H](NC1=O)C(=O)N[C@@H](CCCNC(=N)N)C(=O)NCC(=O)N[C@@H](CC(=O)O)C(=O)N2` [Cyclic peptide 5] ({CH2CO}-I[hCys]RGD[Dap]F[hCys]KKK-OH; linker 2-6 via X1; thioether N-8), at human integrin αvβ5, the pKd is 7.00 to 7.30. In addition, the “Molecule stability (cyclic peptide residual rate)” value in data set [1] was “A (The residual rate of the cyclic peptide is 70% or more.)”.
For `CC[C@H](C)[C@@H]1NC(=O)CSC[C@@H](C(=O)N[C@@H](CCCCN)C(=O)N[C@@H](CCCCN)C(=O)N[C@@H](CCCCN)C(=O)O)NC(=O)[C@H](Cc2ccccc2)NC(=O)[C@@H]2CNC(=O)CSC[C@H](NC1=O)C(=O)N[C@@H](CCCNC(=N)N)C(=O)NCC(=O)N[C@@H](CC(=O)O)C(=O)N2` [Cyclic peptide 6] ({CH2CO}-ICRGD[Dap]FCKKK-OH; linker 2-6 via X1; thioether N-8), the pKd on human integrin αvβ5 was 6.70 to 7.00. In addition, the “Molecule stability (cyclic peptide residual rate)” value in data set [1] is “B (The residual rate of the cyclic peptide is 50% or more and less than 70%.)”.
Consider `CC[C@H](C)[C@@H]1NC(=O)CSCC[C@@H](C(=O)N[C@@H](CCCCN)C(=O)N[C@@H](CCCCN)C(=O)N[C@@H](CCCCN)C(=O)O)NC(=O)[C@H](Cc2ccccc2)NC(=O)[C@@H]2CCNC(=O)CSCC[C@H](NC1=O)C(=O)N[C@@H](CCCNC(=N)N)C(=O)NCC(=O)N[C@@H](CC(=O)O)C(=O)N2` [Cyclic peptide 7] ({CH2CO}-I[hCys]RGD[Dab]F[hCys]KKK-OH; linker 2-6 via X1; thioether N-8), for which the pKd at human integrin αvβ5 was 7.00 to 7.30. Also, in data set [1], the “Molecule stability (cyclic peptide residual rate)” value is “A (The residual rate of the cyclic peptide is 70% or more.)”.
For `CC[C@H](C)[C@@H]1NC(=O)CSC[C@@H](C(=O)N[C@@H](CCCCN)C(=O)N[C@@H](CCCCN)C(=O)N[C@@H](CCCCN)C(=O)O)NC(=O)[C@H](Cc2ccccc2)NC(=O)[C@@H]2CCNC(=O)CSC[C@H](NC1=O)C(=O)N[C@@H](CCCNC(=N)N)C(=O)NCC(=O)N[C@@H](CC(=O)O)C(=O)N2` [Cyclic peptide 8] ({CH2CO}-ICRGD[Dab]FCKKK-OH; linker 2-6 via X1; thioether N-8), on human integrin αvβ5, the pKd is greater than 7.30. The “Molecule stability (cyclic peptide residual rate)” value in data set [1] was “B (The residual rate of the cyclic peptide is 50% or more and less than 70%.)”.
For the molecule `CC[C@H](C)[C@@H]1NC(=O)CSCC[C@@H](C(=O)N[C@@H](CCCCN)C(=O)N[C@@H](CCCCN)C(=O)N[C@@H](CCCCN)C(=O)O)NC(=O)[C@H](Cc2ccccc2)NC(=O)[C@@H]2CCCNC(=O)CSCC[C@H](NC1=O)C(=O)N[C@@H](CCCNC(=N)N)C(=O)NCC(=O)N[C@@H](CC(=O)O)C(=O)N2` [Cyclic peptide 9] ({CH2CO}-I[hCys]RGD[Orn]F[hCys]KKK-OH; linker 2-6 via X1; thioether N-8), the pKd at human integrin αvβ5 is 7.00 to 7.30. Besides, in data set [1], the “Molecule stability (cyclic peptide residual rate)” value is recorded as “A (The residual rate of the cyclic peptide is 70% or more.)”.
As to `CC[C@H](C)[C@@H]1NC(=O)CSC[C@@H](C(=O)N[C@@H](CCCCN)C(=O)N[C@@H](CCCCN)C(=O)N[C@@H](CCCCN)C(=O)O)NC(=O)[C@H](Cc2ccccc2)NC(=O)[C@@H]2CCCNC(=O)CSC[C@H](NC1=O)C(=O)N[C@@H](CCCNC(=N)N)C(=O)NCC(=O)N[C@@H](CC(=O)O)C(=O)N2` [Cyclic peptide 10] ({CH2CO}-ICRGD[Orn]FCKKK-OH; linker 2-6 via X1; thioether N-8), at human integrin αvβ5, the pKd is 7.00 to 7.30. The “Molecule stability (cyclic peptide residual rate)” value in data set [1] was “B (The residual rate of the cyclic peptide is 50% or more and less than 70%.)”.
In the case of `CC[C@H](C)[C@@H]1NC(=O)CSCC[C@@H](C(=O)N[C@@H](CCCCN)C(=O)N[C@@H](CCCCN)C(=O)N[C@@H](CCCCN)C(=O)O)NC(=O)[C@H](Cc2ccccc2)NC(=O)[C@@H]2CCCCNC(=O)CSCC[C@H](NC1=O)C(=O)N[C@@H](CCCNC(=N)N)C(=O)NCC(=O)N[C@@H](CC(=O)O)C(=O)N2` [Cyclic peptide 11] ({CH2CO}-I[hCys]RGDKF[hCys]KKK-OH; linker 2-6 via X1; thioether N-8), the pKd on human integrin αvβ5 was greater than 7.30. The “Molecule stability (cyclic peptide residual rate)” value in data set [1] was “A (The residual rate of the cyclic peptide is 70% or more.)”.
On to `CC[C@H](C)[C@@H]1NC(=O)CSC[C@@H](C(=O)N[C@@H](CCCCN)C(=O)N[C@@H](CCCCN)C(=O)N[C@@H](CCCCN)C(=O)O)NC(=O)[C@H](Cc2ccccc2)NC(=O)[C@@H]2CCCCNC(=O)CSC[C@H](NC1=O)C(=O)N[C@@H](CCCNC(=N)N)C(=O)NCC(=O)N[C@@H](CC(=O)O)C(=O)N2` [Cyclic peptide 12] ({CH2CO}-ICRGDKFCKKK-OH; linker 2-6 via X1; thioether N-8), for which the pKd on human integrin αvβ5 is greater than 7.30. Moreover, in data set [1], the “Molecule stability (cyclic peptide residual rate)” value was “B (The residual rate of the cyclic peptide is 50% or more and less than 70%.)”.
Take `CC[C@H](C)[C@@H]1NC(=O)CSC[C@@H](C(=O)N[C@@H](CCCCN)C(=O)N[C@@H](CCCCN)C(=O)N[C@@H](CCCCN)C(=O)O)NC(=O)[C@H](Cc2ccccc2)NC(=O)[C@@H]2CCSCC(=O)NC[C@H](NC1=O)C(=O)N[C@@H](CCCNC(=N)N)C(=O)NCC(=O)N[C@@H](CC(=O)O)C(=O)N2` [Cyclic peptide 13] ({CH2CO}-I[Dap]RGD[hCys]FCKKK-OH; linker 2-6 via X2; thioether N-8): the pKd at human integrin αvβ5 was 7.00 to 7.30. For the same molecule, in data set [1], the “Molecule stability (cyclic peptide residual rate)” value is listed as “A (The residual rate of the cyclic peptide is 70% or more.)”.
Consider `CC[C@H](C)[C@@H]1NC(=O)CSCC[C@@H](C(=O)N[C@@H](CCCCN)C(=O)N[C@@H](CCCCN)C(=O)N[C@@H](CCCCN)C(=O)O)NC(=O)[C@H](Cc2ccccc2)NC(=O)[C@@H]2CSCC(=O)NC[C@H](NC1=O)C(=O)N[C@@H](CCCNC(=N)N)C(=O)NCC(=O)N[C@@H](CC(=O)O)C(=O)N2` [Cyclic peptide 14] ({CH2CO}-I[Dap]RGDCF[hCys]KKK-OH; linker 2-6 via X2; thioether N-8), for which the pKd on human integrin αvβ5 was greater than 7.30. Further, the “Molecule stability (cyclic peptide residual rate)” value in data set [1] is given as “A (The residual rate of the cyclic peptide is 70% or more.)”.
Consider `CC[C@H](C)[C@@H]1NC(=O)CSC[C@@H](C(=O)N[C@@H](CCCCN)C(=O)N[C@@H](CCCCN)C(=O)N[C@@H](CCCCN)C(=O)O)NC(=O)[C@H](Cc2ccccc2)NC(=O)[C@@H]2CCSCC(=O)NCCC[C@H](NC1=O)C(=O)N[C@@H](CCCNC(=N)N)C(=O)NCC(=O)N[C@@H](CC(=O)O)C(=O)N2` [Cyclic peptide 15] ({CH2CO}-I[Orn]RGD[hCys]FCKKK-OH; linker 2-6 via X2; thioether N-8), for which, at human integrin αvβ5, the pKd was greater than 7.30. Moreover, in data set [1], the “Molecule stability (cyclic peptide residual rate)” value is reported as “A (The residual rate of the cyclic peptide is 70% or more.)”.
